For data set [1], the target named is T1, EGFR (Homo sapiens, UniProt P00533).
T1 construct: endogenous in cells; host or cells: MDA-MB-468
In words: EGF/EGFmp competition for the receptor, EGFR activation by Western Blot. Format: cell-based. Conditions: mix of EGF and peptide, EGFR-overexpressing cancer cells. A general note: Immunoblotting shows a protein as a band on a membrane.

In data set [2] the target is T1, EGFR. Nature of the data set: EGFR pathway activation (EGFR phosphorylation) by Western Blot. Format: cell-based. The source says: EGFR signaling pathway is believed to induce growth, differentiation, migration, adhesion, and cell survival through various interacting signaling pathways. It is believed to be critical for the design of chemotherapeutic pro-drugs utilizing this receptor to ensure this pathway was not triggered, leading to further cancer cell proliferation and survival, which could counteract the effects of the chemotherapeutic drug.
Actin was used as an internal control in all gels.

Data set [3] in a line: In vivo organ distribution after systemic and local delivery. The arrangement: species or system mice. How it is done: An analysis was conducted of the organ distribution of both the dendritic pro-drugs and free doxorubicin after local and systemic administration. Fluorescently labelled dendritic pro-drugs of Example 5 or free drug were injected systemically and their distributions were assessed after 24 hours.

The test system of data set [4] is healthy mammary epithelial cells. In words: Cytocidal effect in healthy cells. Conditions: equivalent free doxorubicin concentration. Format: cell-based. An excerpt:
The next question studied was whether conjugated doxorubicin still maintained its cytotoxic effect.

Data set [5] deals with triple negative breast cancer (TNBC). In words: In vivo therapeutic efficacy, murine model of triple negative breast cancer.
Data set [6] in a line: Release from dendrimer:dextran hydrogel scaffold. Format: physicochemical. The source says:
The hydrogel matrix included a 10% solid content PAMAM dendrimer, generation 5, with 75% of the amines of its surface groups oxidized to alcohols (i.e., 32 amines and 96 alcohols), and a 10% solid content dextran aldehyde (10 kDa weight average molecule weight, with 50% oxidation to aldehydes).
Free doxorubicin was released in approximately 6 days, owing to the interactions between amine groups in the drug and aldehyde groups in the dextran. When amines in the doxorubicin structure were blocked with aconitic anhydride, the drug was released rapidly through the large pores of the hydrogel in 48 hours.

[7] abbreviates: local in hydrogel scaffold, 72-hour post-implantation.

The values below come from patent US20190142953A1, “Dendrimer-Drug Conjugates, Hydrogel Compositions, and Methods” (Massachusetts Institute of Technology, priority 2016, published 2019).

As to “NH2—CGGGGAEYLR-COOH (H-CGGGGAEYLR-OH) [EGFmp, EGF mimicking peptide modified with four glycine residues terminated with a cysteine]”, in the data set with EGFR [1], the “blocking of EGF-mediated EGFR activation” value was “did not behave as an EGF antagonist”. For the same compound, the “EGFR phosphorylation / pathway activation” value with EGFR [2] is recorded as “none were observed”.
With `COc1cccc2c1C(=O)c1c(O)c3c(c(O)c1C2=O)C[C@@](O)(C(=O)CO)C[C@@H]3O[C@H]1C[C@H](N)[C@H](O)[C@H](C)O1` [free doxorubicin, doxorubicin], the “circulating level in blood” value in data set [3] (after local delivery) is on record as “No circulating drug or dendritic pro-drug were observed in the blood”. Also, in data set [3] (after systemic administration), the “level in blood (fluorescence)” value is reported as “not statistically different than that of the untreated control”. Besides, in data set [3] (setting [7]), the “accumulation in other organs” value was “no accumulation was observed in other organs” and the “tumor accumulation, local therapy versus systemic administration” value was determined as 5 times. Moreover, in data set [3] (systemic injection, 24 hours), the “accumulation in other organs (spleen, heart, lungs, liver, kidneys)” value was “no significant accumulation was observed in any other organ”. For the same compound, the cell death entry in data set [4] is reported as “over 90%”. In addition, the “tumor shrinkage compared to untreated control” value in data set [5] (local in hydrogel, multiple doses (days 0, 11, 22), bioluminescence) is listed as 69%. Also, in data set [5] (systemic administration), the “tumor reduction compared to untreated control” value is reported as “did not exhibit significant tumor volume reduction”. For the same compound, the “time to release from hydrogel” value in data set [6] is “approximately 6 days”.
